# Results: patent US9862711B2, “Pyrazine derivatives as phosphatidylinositol 3-kinase inhibitors” (NOVARTIS AG, priority 2014, dated 2018)
# Biological target: PI 3-kinase beta (Homo sapiens (Human), UniProt P42338)
# Assay: Cellular p-Akt (S473) SureFire assay, Rat-1_PI3Kbeta cells (Assay I)
# Type: cell-based
# Conditions: p-AKT (Ser473) in Rat-1 cells expressing myr-HA-hp110 beta, 1 h compound; read-out: Assay I PI3Kβ IC50
# Description: Cellular Assays for PI 3-Kinase Alpha (H), Beta (I) and Delta (J)
# AlphaScreen (Amplified Luminescent Proximity Homogeneous Assay, ALPHA, Perkin Elmer) is a non-radioactive bead-based proximity assay technology to study biomolecular interactions in a homogenous microtiter plate format. The brand name SureFire denotes AlphaScreen assays that are adapted to quantify the phosphorylation of endogenous cellular proteins in cell lysates, by using matched antibody pairs, which consist of an anti-phospho-kinase and an anti-kinase antibody. The assay allows characterization of kinase signaling in cells as well as measurement of kinase inhibitor effects.
# Rat-1 cell lines stably overexpressing activated PI 3-kinase class I isoforms Rat-1 pBABEpuro Myr-HA-hp110 delta clone 5 (Rat-1_PI3Kdelta) and Rat-1 pBABEpuro Myr-HA-hp110 alpha clone 6 (Rat-1_PI3Kalpha) and Rat-1 pBABEpuro Myr-HA-hp110 beta (Rat-1_PI3beta) were cultivated in complete growth medium (DMEM high glucose, 10% (v/v) fetal bovine serum, 1% (v/v) MEM NEAA, 10 mM HEPES, 2 mM L-glutamine, puromycin (10 μg/mL for Rat-1_PI3Kdelta and Rat-1_PI3Kalpha, 4 ug/mL for Rat-1_PI3beta), 1% (v/v) Pen/Strep) to 90% confluency at 37° C./5% CO2/90% humidity in a humidified CO2 incubator and were split twice a week. The following materials were used for p-AKT(5473) detection in Rat-1 cell lysates: Dulbecco's modified Eagle's medium (DMEM) high glucose (Gibco Invitrogen, Basel, Switzerland, Cat. No. 41965), heat inactivated fetal bovine serum, qualified (HI FBS; Gibco Invitrogen, Basel, Switzerland, Lot. No. 16140), MEM non essential amino acids (NEAA; Gibco Invitrogen, Basel, Switzerland, Cat. No. 11140), HEPES (Gibco Invitrogen, Basel, Switzerland, Cat. No. 15630), penicillin/streptomycin (Pen/Strep, 100×; Gibco Invitrogen, Basel, Switzerland, Cat. No. 15140-122), L-glutamine (Gibco Invitrogen, Basel, Switzerland, Cat. No. 25030), puromycin (Sigma Aldrich, Buchs, Switzerland, Cat. No. P9620), DMSO (MERCK, Dietikon, Switzerland, Cat. No. 8.02912.2500), H2O, MilliQ-H2O unless otherwise stated (MILLIPORE QGARDOOR1, Millipore, Zug, Switzerland), bovine serum albumine (BSA; Sigma Aldrich, Buchs, Switzerland Cat. No. A8412), SureFire p-Akt 1/2 (Ser473) Assay Kit (Perkin Elmer, Schwerzenbach, Switzerland, Cat. No. TGRAS50K).
# The p-Akt (S473) SureFire assay measures the phosphorylation of endogenous cellular Akt 1/2 at Ser473 in cell lysates. Using Rat-1 cells stably expressing myr-HA-tagged versions of the human PI3Kdelta, PI3Kalpha, or PI3Kbeta p110 catalytic subunit isoforms, the assay was developed as a two-plate protocol in a 384-well format.
# For compound testing, the cells were seeded at a density of 4000 (Rat-1_PI3Kdelta), 7500 (Rat-1_PI3Kalpha), or 6200 (Rat-1_PI3Kbeta) cells in 20 μl complete growth medium into cell culture treated 384-well plates and were grown at 37° C./5% CO2/90% humidity for 24 h. Shortly before compound transfer, the complete medium was removed, 30 μl assay buffer (DMEM high glucose, 1×MEM NEAA, 10 mM HEPES, 2 mM L-glutamine, 0.1% (w/v) BSA) was added and 10 μl of the compound predilutions were transferred to the cells. After treatment with compound for 1 h, the cells were lysed by the addition of 20 μl lysis buffer supplemented with 0.24% (w/v) BSA. Detection of p-AKT (Ser473) was performed with the SureFire p-Akt 1/2 (Ser473) Assay Kit according to the manufacturer's instructions using 5 ul of cell lysate in a total detection volume of 12 μl.
# IC50 values of the percentage inhibition of each compound at 8 concentrations (usually 10, 3.0, 1.0, 0.3, 0.1, 0.030, 0.010 and 0.003 μM) n=2 were derived by fitting a sigmoidal dose-response curve to a plot of assay readout over inhibitor concentration as described. All fits were performed with the program XLfit4 (ID Business Solutions, Guildford, UK).
# Sequence of PI 3-kinase beta (P42338 whole entry): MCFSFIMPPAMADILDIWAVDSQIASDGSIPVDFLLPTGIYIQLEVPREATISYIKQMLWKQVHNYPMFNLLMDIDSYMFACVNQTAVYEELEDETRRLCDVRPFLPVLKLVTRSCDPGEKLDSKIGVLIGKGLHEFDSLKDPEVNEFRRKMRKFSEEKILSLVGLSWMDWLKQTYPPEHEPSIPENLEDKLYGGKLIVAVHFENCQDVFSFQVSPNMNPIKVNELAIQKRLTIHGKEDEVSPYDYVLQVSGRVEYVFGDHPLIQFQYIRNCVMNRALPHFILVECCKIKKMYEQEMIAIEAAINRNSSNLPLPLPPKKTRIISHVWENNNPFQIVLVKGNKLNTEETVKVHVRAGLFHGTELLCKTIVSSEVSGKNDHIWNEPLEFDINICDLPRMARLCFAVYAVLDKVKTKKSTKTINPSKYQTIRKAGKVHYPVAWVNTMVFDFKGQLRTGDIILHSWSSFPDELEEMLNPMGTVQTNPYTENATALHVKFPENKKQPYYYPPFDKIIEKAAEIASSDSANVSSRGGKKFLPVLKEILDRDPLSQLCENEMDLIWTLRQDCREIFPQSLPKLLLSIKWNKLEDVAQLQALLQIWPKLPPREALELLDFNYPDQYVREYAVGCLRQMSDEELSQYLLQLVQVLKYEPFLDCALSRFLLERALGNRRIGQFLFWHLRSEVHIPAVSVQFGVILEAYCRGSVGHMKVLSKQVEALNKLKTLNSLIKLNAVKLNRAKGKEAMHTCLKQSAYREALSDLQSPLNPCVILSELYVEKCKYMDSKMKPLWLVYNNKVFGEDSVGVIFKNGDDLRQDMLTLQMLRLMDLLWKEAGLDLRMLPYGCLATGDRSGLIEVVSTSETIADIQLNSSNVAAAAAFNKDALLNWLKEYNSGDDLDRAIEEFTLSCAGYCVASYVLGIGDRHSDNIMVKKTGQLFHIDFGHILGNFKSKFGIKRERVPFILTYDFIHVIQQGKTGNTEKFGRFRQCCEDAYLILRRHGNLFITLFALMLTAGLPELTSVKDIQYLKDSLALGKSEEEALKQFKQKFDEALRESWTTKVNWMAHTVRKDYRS
# Sequence of PI 3-kinase beta (Q63787 whole entry partner): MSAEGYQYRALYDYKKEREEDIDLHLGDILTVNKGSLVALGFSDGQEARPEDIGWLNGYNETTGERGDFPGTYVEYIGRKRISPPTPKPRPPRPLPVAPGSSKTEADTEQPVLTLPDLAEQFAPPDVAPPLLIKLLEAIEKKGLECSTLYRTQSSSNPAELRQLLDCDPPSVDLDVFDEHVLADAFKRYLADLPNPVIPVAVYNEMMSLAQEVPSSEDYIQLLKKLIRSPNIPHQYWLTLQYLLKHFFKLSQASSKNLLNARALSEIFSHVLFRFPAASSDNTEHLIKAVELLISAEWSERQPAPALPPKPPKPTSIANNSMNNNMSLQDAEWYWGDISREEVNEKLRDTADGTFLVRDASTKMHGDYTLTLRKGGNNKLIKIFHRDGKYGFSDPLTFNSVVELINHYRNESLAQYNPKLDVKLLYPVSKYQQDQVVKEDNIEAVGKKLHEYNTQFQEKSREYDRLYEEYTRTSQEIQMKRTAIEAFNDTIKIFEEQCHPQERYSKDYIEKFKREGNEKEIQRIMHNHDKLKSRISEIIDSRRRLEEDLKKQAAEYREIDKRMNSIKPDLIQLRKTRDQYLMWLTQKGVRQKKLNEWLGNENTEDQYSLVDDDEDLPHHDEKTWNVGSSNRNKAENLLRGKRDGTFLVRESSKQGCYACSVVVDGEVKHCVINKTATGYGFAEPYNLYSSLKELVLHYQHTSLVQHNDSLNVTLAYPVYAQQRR
row,Structure (SMILES),IC50 [µM]
1,"Cc1ccc(S(=O)(=O)NCC(C)(C)O)cc1-c1cncc(-c2cn(C)nc2C)n1 [Example 2, 3-[6-(1,3-Dimethyl-1H-pyrazol-4-yl)-pyrazin-2-yl]-N-(2-hydroxy-2-methyl-propyl)-4-methyl-benzenesulfonamide]",0.784
2,"Cc1ccc(S(=O)(=O)NCCC(C)(C)O)cc1-c1cncc(-c2cn(C)nc2C)n1 [Example 3, 3-[6-(1,3-Dimethyl-1H-pyrazol-4-yl)-pyrazin-2-yl]-N-(3-hydroxy-3-methyl-butyl)-4-methyl-benzenesulfonamide]",3.18
3,"Cc1ccc(S(=O)(=O)NCC2(C)COC2)cc1-c1cncc(-c2cn(C)nc2C)n1 [Example 4, Trans 3-[6-(1,3-Dimethyl-1H-pyrazol-4-yl)-pyrazin-2-yl]-4-methyl-N-(3-methyl-oxetan-3-ylmethyl)-benzenesulfonamide]",0.833
4,"Cc1ncc(-c2cncc(-c3cc(S(=O)(=O)N[C@H]4CC[C@H](O)CC4)ccc3C)n2)s1 [Example 5, Trans N-(4-Hydroxycyclohexyl)-4-methyl-3-(6-(2-methylthiazol-5-yl)pyrazin-2-yl)benzenesulfonamide]",9.42
5,"Cc1ccc(S(=O)(=O)NCCC(C)(C)O)cc1-c1cncc(-c2cnn(CCN3CCOCC3)c2)n1 [Example 9, N-(3-Hydroxy-3-methyl-butyl)-4-methyl-3-{6-[1-(2-morpholin-4-yl-ethyl)-1H-pyrazol-4-yl]-pyrazin-2-yl}-benzenesulfonamide]",6.98
6,"Cc1ccc(S(=O)(=O)NCCC(C)(C)O)cc1-c1cncc(-c2cn(CCN3CCOCC3)nc2C)n1 [Example 10, N-(3-Hydroxy-3-methyl-butyl)-4-methyl-3-{6-[3-methyl-1-(2-morpholin-4-yl-ethyl)-1H-pyrazol-4-yl]-pyrazin-2-yl}-benzenesulfonamide]",3.83
7,"Cc1ccc(S(=O)(=O)N[C@H]2CC[C@H](O)CC2)cc1-c1cncc(-c2cccnc2)n1 [Example 11, Trans N-(4-Hydroxy-cyclohexyl)-4-methyl-3-(6-pyridin-3-yl-pyrazin-2-yl)-benzenesulfonamide]",> 10
